Assay: molar heat capacity at constant pressure
Details: 101.33 kPa, Vacuum adiabatic calorimetry

CC(C)(C)c1ccc(-c2ccccc2)cc1 [4-(1,1-dimethylethyl)-1,1'-biphenyl]
Details | molar heat capacity at constant pressure [J/K/mol]
156.5 K, Crystal | 164.59
157.48 K, Crystal | 165.54
158.46 K, Crystal | 168.2
159.4 K, Crystal | 167.88
160.49 K, Crystal | 170.03
162.35 K, Crystal | 170.22
163.32 K, Crystal | 171.45
164.3 K, Crystal | 171.68
165.27 K, Crystal | 172.24
166.24 K, Crystal | 173.77
167.21 K, Crystal | 175.03
168.17 K, Crystal | 175.74
169.13 K, Crystal | 176.91
170.1 K, Crystal | 177.85
171.06 K, Crystal | 178.74
172.03 K, Crystal | 179.57
172.99 K, Crystal | 180.33
173.96 K, Crystal | 181.16
174.88 K, Crystal | 181.91
175.84 K, Crystal | 182.48
176.8 K, Crystal | 183.39
177.75 K, Crystal | 184.41
178.71 K, Crystal | 186.15
179.67 K, Crystal | 186.69
180.62 K, Crystal | 187.72
181.58 K, Crystal | 187.66
182.53 K, Crystal | 188.58
183.48 K, Crystal | 190.07
184.43 K, Crystal | 190.57
185.38 K, Crystal | 191.97
186.33 K, Crystal | 192.5
187.27 K, Crystal | 193.52
188.22 K, Crystal | 194.65
189.16 K, Crystal | 195.58
190.05 K, Crystal | 196.73
190.99 K, Crystal | 197.88
191.93 K, Crystal | 198.13
192.87 K, Crystal | 199.81
193.81 K, Crystal | 200.3
194.75 K, Crystal | 200.51
195.68 K, Crystal | 201.32
196.61 K, Crystal | 203.32
197.55 K, Crystal | 203.52
198.48 K, Crystal | 205.18
199.41 K, Crystal | 205.85
200.34 K, Crystal | 205.72
201.52 K, Crystal | 207.22
202.94 K, Crystal | 208.68
204.37 K, Crystal | 210.19
205.79 K, Crystal | 211.33
207.14 K, Crystal | 212.7
208.55 K, Crystal | 214.44
209.96 K, Crystal | 215.21
211.37 K, Crystal | 217.19
212.78 K, Crystal | 218.22
214.19 K, Crystal | 219.53
215.59 K, Crystal | 220.68
216.99 K, Crystal | 222.17
218.39 K, Crystal | 224.18
219.79 K, Crystal | 225.72
221.18 K, Crystal | 226.72
222.9 K, Crystal | 227.94
224.62 K, Crystal | 229.7
226 K, Crystal | 231.67
227.39 K, Crystal | 232.23
228.77 K, Crystal | 233.85
230.14 K, Crystal | 234.83
231.52 K, Crystal | 236.49
232.88 K, Crystal | 237.84
234.25 K, Crystal | 239.02
235.61 K, Crystal | 240.58
236.97 K, Crystal | 241.66
238.33 K, Crystal | 243.18
239.69 K, Crystal | 244.52
241.05 K, Crystal | 245.68
242.4 K, Crystal | 247.57
243.75 K, Crystal | 248.49
244.98 K, Crystal | 249.71
246.33 K, Crystal | 251.82
247.66 K, Crystal | 253.81
249 K, Crystal | 254.6
250.34 K, Crystal | 256.26
251.68 K, Crystal | 256.95
253.01 K, Crystal | 258.51
254.34 K, Crystal | 259.55
255.66 K, Crystal | 261.49
256.97 K, Crystal | 262.33
258.29 K, Crystal | 263.11
259.61 K, Crystal | 265.21
260.92 K, Crystal | 267.1
262.23 K, Crystal | 268.4
263.54 K, Crystal | 269.72
264.84 K, Crystal | 270.96
265.99 K, Crystal | 271.74
267.28 K, Crystal | 273.32
268.57 K, Crystal | 275.22
269.86 K, Crystal | 276.29
271.15 K, Crystal | 277.98
272.43 K, Crystal | 280.14
273.71 K, Crystal | 281.15
274.98 K, Crystal | 281.51
276.26 K, Crystal | 282.58
277.52 K, Crystal | 284.25
278.79 K, Crystal | 285.49
280.04 K, Crystal | 286.95
281.3 K, Crystal | 288.13
282.55 K, Crystal | 289.87
283.8 K, Crystal | 290.87
285.04 K, Crystal | 291.7
286.08 K, Crystal | 293.13
287.32 K, Crystal | 295.16
288.53 K, Crystal | 295.47
289.76 K, Crystal | 296.85
292.2 K, Crystal | 299.34
293.41 K, Crystal | 300.48
294.63 K, Crystal | 301.51
295.83 K, Crystal | 302.32
297.03 K, Crystal | 303.76
298.23 K, Crystal | 303.58
299.42 K, Crystal | 305.47
300.61 K, Crystal | 306.04
301.79 K, Crystal | 308.28
302.89 K, Crystal | 309.67
303.99 K, Crystal | 310.47
305.04 K, Crystal | 312.55
306.34 K, Crystal | 313.92
307.46 K, Crystal | 315.51
308.62 K, Crystal | 315.74
309.76 K, Crystal | 319.18
310.9 K, Crystal | 320.42
312.03 K, Crystal | 320.51
313.15 K, Crystal | 321.63
314.25 K, Crystal | 323.46
315.35 K, Crystal | 326.54
316.44 K, Crystal | 326.58
317.52 K, Crystal | 328.97
318.58 K, Crystal | 333.26
325.87 K, Liquid | 381
327.07 K, Liquid | 382.02
328.07 K, Liquid | 382.22
329.06 K, Liquid | 382.84
330.05 K, Liquid | 383.2
331.03 K, Liquid | 383.56
332.01 K, Liquid | 384.21
332.98 K, Liquid | 384.73
333.94 K, Liquid | 386.4
334.9 K, Liquid | 386.26
335.85 K, Liquid | 387.48
336.8 K, Liquid | 388
337.74 K, Liquid | 388.46
338.68 K, Liquid | 388.8
339.61 K, Liquid | 389.81
340.53 K, Liquid | 390.68
340.99 K, Liquid | 390.97
341.91 K, Liquid | 391.9
342.82 K, Liquid | 392.95
343.73 K, Liquid | 393.35
344.62 K, Liquid | 393.96
345.52 K, Liquid | 394.82
346.4 K, Liquid | 396.04
347.28 K, Liquid | 396.15
348.16 K, Liquid | 397.03
349.03 K, Liquid | 396.87
349.89 K, Liquid | 397.86
350.75 K, Liquid | 398.4
351.6 K, Liquid | 397.8
352.45 K, Liquid | 397.92
354.12 K, Liquid | 401.27
354.41 K, Liquid | 401.25
355.24 K, Liquid | 400.85
356.06 K, Liquid | 400.95
356.87 K, Liquid | 401.61
357.67 K, Liquid | 402.4
358.47 K, Liquid | 402.62
359.27 K, Liquid | 402.51
360.06 K, Liquid | 402.5
360.84 K, Liquid | 404.15
361.61 K, Liquid | 405.1
362.38 K, Liquid | 405.27
363.15 K, Liquid | 406.09
363.91 K, Liquid | 406.9
364.66 K, Liquid | 406.47
365.41 K, Liquid | 407.47
366.15 K, Liquid | 407.61
366.27 K, Liquid | 407.63
367.01 K, Liquid | 406.87
367.73 K, Liquid | 408.31
368.45 K, Liquid | 410.51
369.17 K, Liquid | 410.57
369.88 K, Liquid | 409.74
370.58 K, Liquid | 410.84

Reference: the NIST ThermoML archive (doi:10.1016/j.jct.2010.05.002)
